5 molecules from EPA's ToxRefDB 2 can be followed below.

In general, LOAEL refers to the lowest dose or exposure tested at which an adverse effect was seen. As a reminder, the NOAEL is the highest dose or exposure tested at which no adverse effect was seen.

Structures are written as SMILES.

Data set [1] relates to rat. The note with it: Combined chronic toxicity/carcinogenicity, sprague dawley, Oral, Feed, dose end: 106 week.
The test system of data set [2] is rat. The note with it: Prenatal developmental toxicity study, sprague dawley, Oral, Gavage/Intubation, dose end: 15 GD.
For data set [3], the system named is rat. The settings on record: Prenatal developmental toxicity study, sprague dawley, Oral, Gavage/Intubation, dose end: 15 GD. The source holds these as a separate data set.
The test system of data set [4] is rat. The note with it: Prenatal developmental toxicity study, sprague dawley albino, Oral, Gavage/Intubation, dose end: 19 GD.
Data set [5] concerns rat. The note with it: Multigenerational reproductive toxicity study, wistar, Oral, Feed, dose end: 2 generation.
Data set [6] concerns rat. The settings on record: Peri- and post-natal toxicity study (Segment III), wistar, Oral, Gavage/Intubation, dose end: 21 PND.
Data set [7] relates to rat. The note with it: Multigenerational reproductive toxicity study, wistar, Oral, Gavage/Intubation, dose end: 1 generation.
The subject of a further data set is mouse. The settings on record: Combined chronic toxicity/carcinogenicity, cd1, Oral, Feed, dose end: 24 month.
Data set [8] has as its system rat. The settings on record: Combined chronic toxicity/carcinogenicity, fischer, Oral, Feed, dose end: 106 week.
The test system of a further data set is rabbit. The note with it: Prenatal developmental toxicity study, Dutch, Oral, Gavage/Intubation, dose end: 18 GD.
For data set [9], the system named is rat. The settings on record: Combined chronic toxicity/carcinogenicity, fischer, Oral, Feed, dose end: 2 year.
Data set [10] concerns rat. The settings on record: Multigenerational reproductive toxicity study, sprague dawley, Oral, Feed, dose end: 2 generation.
The mark [11] stands for this setting: group: cholinesterase, cholinesterase / cholinesterase / cholinesterase / erythrocyte cholinesterase (che) + cholinesterase / cholinesterase / cholinesterase / ….
Where [12] appears, read: group: systemic, systemic / in life observation / body weight / body weight + systemic / in life observation / body weight / body weight gain + systemic / in….
[13] abbreviates: group: developmental, developmental / developmental malformation / trunk / ecchymosis.
Where [14] appears, read: group: developmental, developmental / developmental malformation / trunk / ecchymosis + developmental / developmental malformation / bone / incomplete ….
[15] abbreviates: group: maternal, systemic / in life observation / body weight / body weight gain + systemic / in life observation / food consumption / food consumption.
Where [16] appears, read: group: maternal, systemic / in life observation / body weight / body weight gain + systemic / in life observation / food consumption / food consumption + ….
[17] abbreviates: group: developmental, developmental / developmental malformation / bone / absent + developmental / developmental malformation / bone / supernumerary.
Where [18] appears, read: group: developmental, developmental / developmental malformation / bone / absent + developmental / developmental malformation / bone / supernumerary + systemic / ….
The mark [19] stands for this setting: group: maternal, systemic / in life observation / body weight / body weight gain.
[20] abbreviates: group: maternal, systemic / in life observation / body weight / body weight gain + systemic / in life observation / clinical signs / salivation + systemic / ….
Where [21] appears, read: group: developmental, developmental / developmental landmark / anogenital distance (agd) / anogenital distance (agd).
The mark [22] stands for this setting: group: offspring, systemic / organ weight / liver / absolute + systemic / organ weight / liver / nos + systemic / organ weight / epididymis / absolute + ….
Setting [23] is: group: offspring, systemic / organ weight / testes / nos.
The mark [24] stands for this setting: group: parental, systemic / organ weight / testes / absolute.
Where [25] appears, read: group: parental, systemic / organ weight / testes / absolute + systemic / organ weight / liver / nos + systemic / organ weight / testes / nos + systemic / ….
Where [26] appears, read: group: reproductive, reproductive / reproductive performance / fertility / fertility.
Setting [27] is: group: offspring, systemic / in life observation / body weight / offspring (pup) weight gain.
Where [28] appears, read: group: parental, systemic / in life observation / body weight / body weight gain + systemic / in life observation / food consumption / food consumption.
Setting [29] is: group: reproductive, reproductive / offspring survival early / dead fetuses / dead fetuses.
The mark [30] stands for this setting: group: cholinesterase, cholinesterase / cholinesterase / cholinesterase / brain cholinesterase (che) + cholinesterase / cholinesterase / cholinesterase / ….
The mark [31] stands for this setting: group: systemic, systemic / in life observation / clinical signs / urine staining - perineum.
Setting [32] is: group: systemic, systemic / in life observation / clinical signs / vaginal discharge + systemic / in life observation / clinical signs / urine staining - ….
Where [33] appears, read: group: cholinesterase, cholinesterase / cholinesterase / cholinesterase / plasma cholinesterase (che) + cholinesterase / cholinesterase / cholinesterase / brain ….
The mark [34] stands for this setting: group: systemic, systemic / hematology / hematocrit (hct) / hematocrit (hct) + systemic / hematology / mean corpuscular (cell) volume (mcv) / mean ….
The mark [35] stands for this setting: group: developmental, developmental / developmental malformation / bone / delayed ossification + systemic / in life observation / body weight / fetal weight.
[36] abbreviates: group: maternal, reproductive / reproductive performance / resorptions / resorptions + reproductive / reproductive performance / aborted / aborted + systemic….
Where [37] appears, read: group: systemic, systemic / in life observation / body weight / body weight + systemic / in life observation / body weight / body weight gain + systemic / ….
Where [38] appears, read: group: cholinesterase, cholinesterase / cholinesterase / cholinesterase / brain cholinesterase (che) + cholinesterase / cholinesterase / cholinesterase / plasma ….
Setting [39] is: group: offspring, systemic / in life observation / body weight / offspring (pup) weight + systemic / pathology microscopic / kidney / dilatation.
Setting [40] is: group: parental, systemic / pathology gross / lung / discolored + systemic / pathology microscopic / lung / hyperplasia + systemic / pathology microscopic / ….
Where [41] appears, read: group: reproductive, reproductive / offspring survival early / birth index / birth index.

On to `CNC(=O)O/N=C/C(C)(C)SC` [Aldicarb], for which the LEL in the data set on rat [1] (setting [11]) turned out to be 0.47 mg/kg/day; in the data set on rat [1] (setting [12]), 1.44 mg/kg/day; in the data set on rat [2] (setting [13]), 0.25 mg/kg/day; in the data set on rat [2] (setting [15]), 0.25 mg/kg/day. Also, the LOAEL in the data set on rat [1] (setting [11]) was 0.47 mg/kg/day; with rat [1] (setting [12]), greater than 1.44 mg/kg/day; in the data set with rat [2] (setting [13]) it was 0.25 mg/kg/day; with rat [2] (setting [15]), 0.25 mg/kg/day. Further, the NEL in the data set on rat [1] (setting [11]) worked out at 0.047 mg/kg/day; in the data set on rat [1] (setting [12]), 0.47 mg/kg/day; with rat [2] (setting [14]) it was 0.125 mg/kg/day; with rat [2] (setting [16]) it was 0.125 mg/kg/day. Moreover, the NOAEL in the data set with rat [1] (setting [11]) was 0.047 mg/kg/day; in the data set on rat [1] (setting [12]), no less than 1.44 mg/kg/day; in the data set on rat [2] (setting [14]), 0.125 mg/kg/day; with rat [2] (setting [16]), 0.125 mg/kg/day.
Consider `C=C(C)C1CC=C(C)CC1` (configuration not stated) [Limonene], for which the LEL in the data set with rat [3] (setting [17]) and in the data set with rat [3] (setting [19]) was 500 mg/kg/day in each case. The LOAEL with rat [3] (setting [17]) and in the data set on rat [3] (setting [19]) was 500 mg/kg/day in each case. The NEL in the data set on rat [3] (setting [18]) and in the data set with rat [3] (setting [20]) was 250 mg/kg/day throughout. In addition, the NOAEL with rat [3] (setting [18]) and in the data set with rat [3] (setting [20]) was 250 mg/kg/day each time.
Consider `CC12CC1(C)C(=O)N(c1cc(Cl)cc(Cl)c1)C2=O` (configuration not stated) [Procymidone], for which the LEL with rat [4] (setting [21]) came to 12.5 mg/kg/day; in the data set with rat [4] (setting [16]), 125 mg/kg/day; in the data set on rat [5] (setting [23]) it was 5.35 mg/kg/day; in the data set on rat [5] (setting [24]), 22.7 mg/kg/day; in the data set with rat [5] (setting [26]), 73.2 mg/kg/day. Moreover, the LOAEL in the data set with rat [4] (setting [21]) was 12.5 mg/kg/day; in the data set on rat [4] (setting [15]), 125 mg/kg/day; with rat [5] (setting [22]), greater than 77.8 mg/kg/day; in the data set on rat [5] (setting [24]), 22.7 mg/kg/day; in the data set on rat [5] (setting [26]) it was 73.2 mg/kg/day. Moreover, the NEL in the data set on rat [4] (setting [21]) was 3.5 mg/kg/day; with rat [4] (setting [16]), 12.5 mg/kg/day; with rat [5] (setting [23]), less than 5.35 mg/kg/day; in the data set with rat [5] (setting [25]), 4.52 mg/kg/day; with rat [5] (setting [26]) it was 24.1 mg/kg/day. Further, the no-observed-adverse-effect level (NOAEL) with rat [4] (setting [21]) is 3.5 mg/kg/day; with rat [4] (setting [16]) it was 12.5 mg/kg/day; with rat [5] (setting [22]), no less than 77.8 mg/kg/day; in the data set with rat [5] (setting [25]), 4.52 mg/kg/day; in the data set on rat [5] (setting [26]), 24.1 mg/kg/day.
In the case of `CCOCC(O)COc1ccc(NC(=O)CC[S+](C)C)cc1.Cc1ccc(S(=O)(=O)[O-])cc1` (configuration not stated) [Suplatast tosylate], in the data set on rat [6] (setting [27]), the LEL was found to be 1800 mg/kg/day, the LOAEL was greater than 1800 mg/kg/day, the NEL came to 600 mg/kg/day and the NOAEL is no less than 1800 mg/kg/day. In the data set with rat [6] (setting [28]), the LEL was 1800 mg/kg/day, the lowest observed adverse effect level (LOAEL) is greater than 1800 mg/kg/day, the NEL came out at 600 mg/kg/day and the NOAEL is no less than 1800 mg/kg/day. In the data set on rat [7] (setting [28]), the LEL was found to be 1800 mg/kg/day, the lowest-observed-adverse-effect level (LOAEL) is greater than 1800 mg/kg/day, the NEL was found to be 600 mg/kg/day and the NOAEL was no less than 1800 mg/kg/day. Further, in the data set on rat [7] (setting [29]), the LEL turned out to be 1800 mg/kg/day, the LOAEL was greater than 1800 mg/kg/day, the NEL worked out at 600 mg/kg/day and the NOAEL was no less than 1800 mg/kg/day.
Turning to `COP(=O)(OC)C(O)C(Cl)(Cl)Cl` (configuration not stated) [Trichlorfon], the LEL with mouse (setting [30]) turned out to be 45 mg/kg/day; in the data set with mouse (setting [31]), 45 mg/kg/day; in the data set with rat [8] (setting [33]), 15 mg/kg/day; in the data set on rat [8] (setting [34]), 15 mg/kg/day; with rabbit (setting [11]), 35 mg/kg/day; with rabbit (setting [35]), 110 mg/kg/day. Moreover, the LEL in the data set on rabbit (group: maternal, reproductive / reproductive performance / aborted / aborted + systemic / in life observation / clinical signs / altered breathing rate + …) came to 35 mg/kg/day; in the data set on rat [9] (setting [30]), 129 mg/kg/day; in the data set with rat [9] (setting [37]), 129 mg/kg/day; in the data set on rat [10] (setting [38]) it was 15 mg/kg/day; in the data set on rat [10] (setting [39]) it was 175 mg/kg/day; with rat [10] (setting [40]) it was 175 mg/kg/day. For the same molecule, the LEL in the data set on rat [10] (group: reproductive, reproductive / offspring survival early / birth index / birth index + reproductive / offspring survival early / litter size / litter size) turned out to be 175 mg/kg/day. Further, the lowest-observed-adverse-effect level (LOAEL) in the data set on mouse (setting [30]) is 45 mg/kg/day; in the data set on mouse (setting [32]), greater than 405 mg/kg/day; in the data set with rat [8] (setting [33]) it was 15 mg/kg/day; in the data set with rat [8] (setting [34]) it was 15 mg/kg/day; with rabbit (setting [11]) it was 35 mg/kg/day; in the data set with rabbit (setting [35]), 110 mg/kg/day. Also, the LOAEL in the data set on rabbit (group: maternal, reproductive / reproductive performance / resorptions / resorptions) is 110 mg/kg/day; in the data set on rat [9] (setting [30]), 129 mg/kg/day; in the data set on rat [9] (setting [37]), 129 mg/kg/day; in the data set with rat [10] (setting [38]), 15 mg/kg/day; in the data set with rat [10] (setting [39]), 175 mg/kg/day; in the data set on rat [10] (setting [40]), greater than 175 mg/kg/day. The molecule also yielded an LOAEL in the data set with rat [10] (setting [41]) of 175 mg/kg/day. Further, the NEL in the data set on mouse (setting [30]) was less than 45 mg/kg/day; with mouse (setting [31]), less than 45 mg/kg/day; with rat [8] (setting [33]), 5 mg/kg/day; in the data set with rat [8] (setting [34]), 5 mg/kg/day; in the data set with rabbit (setting [11]), 10 mg/kg/day; in the data set on rabbit (setting [35]) it was 35 mg/kg/day. Moreover, the NEL with rabbit (setting [36]) is 10 mg/kg/day; in the data set with rat [9] (setting [30]), less than 129 mg/kg/day; in the data set on rat [9] (setting [37]), less than 129 mg/kg/day; in the data set with rat [10] (setting [38]), less than 15 mg/kg/day; in the data set with rat [10] (setting [39]), 50 mg/kg/day; in the data set with rat [10] (setting [40]), 50 mg/kg/day. Moreover, the NEL in the data set with rat [10] (setting [41]) amounted to 50 mg/kg/day. In addition, the NOAEL with mouse (setting [30]) is less than 45 mg/kg/day; in the data set with mouse (setting [32]), no less than 405 mg/kg/day; with rat [8] (setting [33]), 5 mg/kg/day; in the data set on rat [8] (setting [34]) it was 5 mg/kg/day; in the data set with rabbit (setting [11]), 10 mg/kg/day; in the data set with rabbit (setting [35]) it was 35 mg/kg/day. Moreover, the NOAEL was 35 mg/kg/day in the data set on rabbit (setting [36]); less than 129 mg/kg/day in the data set on rat [9] (setting [30]); less than 129 mg/kg/day in the data set on rat [9] (setting [37]); less than 15 mg/kg/day in the data set with rat [10] (setting [38]); 50 mg/kg/day with rat [10] (setting [39]); no less than 175 mg/kg/day in the data set with rat [10] (setting [40]). This molecule came in with an NOAEL in the data set with rat [10] (setting [41]) of 50 mg/kg/day.
